Measured values published in ChEMBL document CHEMBL1128776, “Palladium-catalyzed synthesis of (E)-5-(2-acylvinyl)-2-deoxyuridines and their antiviral and cytotoxic activities” (Bioorg Med Chem Lett, 1995).
Values after ≈ are worked out from the molar mass of the structure shown.

Columns and labels:
HEL [1] = assay: Cytotoxic concentration required to reduce cell growth HEL cells (after 3 days) by 50 %; format: functional; details: Homo sapiens, 72 h
HEL [2] = assay: (§1) Evaluated in vitro for antiviral activity in human embryonic lung (HEL) cell cultures against cytomegalovirus (CMV) strain AD-169; format: functional, cell-based
HEL [3] = assay: Evaluated in vitro for antiviral activity in human embryonic lung (HEL) cell cultures against TK- VZV strain 07/1; format: functional, cell-based
HEL [4] = assay: Minimum cytotoxic concentration against human embryonic lung (HEL) cells; format: functional
HEL [5] = assay: Evaluated in vitro for antiviral activity in human embryonic lung (HEL) cell cultures against TK+ Varicella-Zoster virus (VZV) strain YS; format: functional, cell-based
HEL [6] = assay: Evaluated in vitro for antiviral activity in human embryonic lung (HEL) cell cultures against TK+ VZV strain OKA; format: functional, cell-based
HEL [7] = assay: Evaluated in vitro for antiviral activity in human embryonic lung (HEL) cell cultures against cytomegalovirus (CMV) strain Davis; format: functional, cell-based
HEL [8] = assay: Evaluated in vitro for antiviral activity in human embryonic lung (HEL) cell cultures against TK- Varicella-Zoster virus (VZV) strain YS/R; format: functional, cell-based
E6SM [9] = assay: Evaluated in vitro for its antiviral activity in E6 cell cultures against herpes simplex virus type 1 (HSV-1) TK- VMW 1837; format: functional; details: Homo sapiens
E6SM [10] = assay: Evaluated in vitro for its antiviral activity in E6 cell cultures against vaccinia virus (VV); format: functional; details: Homo sapiens
E6SM [11] = assay: Evaluated in vitro for its antiviral activity in E6 cell cultures against herpes simplex virus type 1 (HSV-1) TK- B2006; format: functional; details: Homo sapiens
HEL [12] = assay: Evaluated in vitro for antiviral activity in human embryonic lung (HEL) cell cultures against […] TK- strain 07/1; format: functional, cell-based
HeLa = assay: Minimum cytotoxic concentration against HeLa cells; format: functional; details: Homo sapiens
HEL [13] = assay: Evaluated in vitro for antiviral activity in HeLa cell cultures against vesicular stomatitis virus (VSV); format: functional; details: Homo sapiens
E6SM [14] = assay: Evaluated in vitro for its antiviral activity in E6 cell cultures against herpes simplex virus type 1 (HSV-1) strain KOS; format: functional; details: Homo sapiens
Vero [15] = assay: Evaluated in vitro for antiviral activity in vero cell cultures against Sindbis virus; format: functional; details: Chlorocebus sabaeus
Vero [16] = assay: Evaluated in vitro for antiviral activity in vero cell cultures against Reovirus type 1; format: functional; details: Chlorocebus sabaeus
Vero [17] = assay: Evaluated in vitro for antiviral activity in vero cell cultures against forest virus; format: functional; details: Chlorocebus sabaeus
HEL [18] = assay: Evaluated in vitro for antiviral activity in HeLa cell cultures against polio virus type 1; format: functional; details: Homo sapiens
Vero [19] = assay: Evaluated in vitro for antiviral activity in vero cell cultures against Parainfluenza virus type 3; format: functional; details: Chlorocebus sabaeus
HEL [20] = assay: Evaluated in vitro for antiviral activity in human embryonic lung (HEL) cell cultures against Varicella-Zoster virus (VZV) strain YS; format: functional, cell-based
Vero [21] = assay: Evaluated in vitro for antiviral activity in vero cell cultures against Coxsackie virus type B4; format: functional; details: Chlorocebus sabaeus
E6SM [22] = assay: Evaluated in vitro for its antiviral activity in E6 cell cultures against vesicular stomatitis virus (VSV); format: functional; details: Homo sapiens
E6SM [23] = assay: Minimum cytotoxic concentration against E6SM cells; format: functional; details: Homo sapiens
Vero [24] = assay: Minimum cytotoxic concentration against vero cells; format: functional; details: Chlorocebus sabaeus
E6SM [25] = assay: Evaluated in vitro for its antiviral activity in E6 cell cultures against herpes simplex virus type 2 (HSV-2) strain G; format: functional; details: Homo sapiens
E6SM [26] = assay: In vitro antiviral activity in E6 cell cultures against vesicular stomatitis virus (VSV); format: functional; details: Homo sapiens
HEL [27] = assay: as §1; format: functional
E6SM [28] = assay: In vitro antiviral activity in E6 cell cultures against herpes simplex virus type 1 (HSV-1) strain KOS; format: functional; details: Homo sapiens
E6SM [29] = assay: In vitro antiviral activity in E6 cell cultures against herpes simplex virus type 2 (HSV-2) strain G; format: functional; details: Homo sapiens
MOLT-4 = assay: Evaluated in vitro for cytostatic activity against human T-lymphocyte cells (Molt 4/C8); format: functional, cell-based
E6SM [30] = assay: In vitro antiviral activity in E6 cell cultures against herpes simplex virus type 1 (HSV-1) TK- B2006; format: functional; details: Homo sapiens
CCRF-CEM [31] = assay: 50% effective concentration required to protect CEM cells against the cytopathogenicity of HIV-2; format: functional, cell-based; details: Homo sapiens
FM3A = assay: Evaluated in vitro for cytostatic activity against murine mammary carcinoma cells (FM3A); format: functional, cell-based; details: Mus musculus
CCRF-CEM [32] = assay: Evaluated in vitro for cytostatic activity against CEM cells; format: functional, cell-based; details: Homo sapiens
E6SM [33] = assay: In vitro antiviral activity in E6 cell cultures against herpes simplex virus type 1 (HSV-1) TK- VMW 1837; format: functional; details: Homo sapiens
L1210 = assay: Evaluated in vitro for cytostatic activity against murine leukemia cells (L1210); format: functional, cell-based; details: Mus musculus
E6SM [34] = assay: In vitro antiviral activity in E6 cell cultures against vaccinia virus (VV); format: functional; details: Homo sapiens
CCRF-CEM [35] = assay: 50% effective concentration required to protect CEM cells against the cytopathogenicity of HIV-1; format: functional, cell-based; details: Homo sapiens
HEL [36] = assay: Evaluated in vitro for antiviral activity in human embryonic lung (HEL) cell cultures against TK - VZV strain OKA; format: functional, cell-based
HEL [37] = assay: Evaluated in vitro for antiviral activity in human embryonic lung (HEL) cell cultures against TK + VZV strain OKA; format: functional, cell-based

`Nc1ccn(C[C@@H](CO)OCP(=O)(O)O)c(=O)n1.O.O` [CIDOFOVIR] was tested, and the CC50 (HEL [1]) was greater than 200 µg/mL, the IC50 (HEL [2]) was 0.06 µg/mL and the IC50 (HEL [3]) was 0.055 µg/mL. For the same compound, the MCC (HEL [4]) was greater than 50 µg/mL, the IC50 (HEL [5]) was 0.09 µg/mL and the IC50 (HEL [6]) was 0.065 µg/mL. The IC50 (HEL [7]) was 0.075 µg/mL and the IC50 (HEL [8]) was 0.05 µg/mL.

For `O=c1[nH]c(=O)n([C@H]2C[C@H](O)[C@@H](CO)O2)cc1/C=C/Br` [BRIVUDINE], the MIC (E6SM [9]) was greater than 400 µg/mL, the CC50 (HEL [1]) was 150 µg/mL (≈ 450 µM) and the MIC (E6SM [10]) was 10 µg/mL (≈ 30 µM). It also gave an MIC (E6SM [11]) greater than 400 µg/mL, an IC50 (HEL [12]) of 5 µg/mL (≈ 15 µM) and an MCC (HeLa) greater than 400 µg/mL. The MIC (HEL [13]) was greater than 400 µg/mL, the MIC (E6SM [14]) was 0.02 µg/mL (≈ 0.06 µM) and the MCC (HEL [4]) was greater than 50 µg/mL. For the same compound, the MIC (Vero [15]) was greater than 400 µg/mL, the MIC (Vero [16]) was greater than 400 µg/mL and the MIC (Vero [17]) was greater than 400 µg/mL. The IC50 (HEL [6]) was 0.0008 µg/mL (≈ 0.0024 µM), the MIC (HEL [18]) was greater than 400 µg/mL and the MIC (Vero [19]) was greater than 400 µg/mL. The IC50 (HEL [20]) was 0.002 µg/mL (≈ 0.006 µM), the MIC (Vero [21]) was greater than 400 µg/mL and the MIC (E6SM [22]) was greater than 400 µg/mL. The MCC (E6SM [23]) was greater than 400 µg/mL, the MCC (Vero [24]) was greater than 400 µg/mL and the MIC (E6SM [25]) was 100 µg/mL (≈ 300 µM). The IC50 (HEL [8]) was greater than 50 µg/mL.

Compound `COc1ccc(C(=O)/C=C/c2cn([C@H]3C[C@H](O)[C@@H](CO)O3)c(=O)[nH]c2=O)cc1` has a CC50 (HEL [1]) greater than 200 µg/mL, an MIC (E6SM [26]) greater than 10 µg/mL and an MIC (HEL [27]) greater than 5 µg/mL. The MIC (E6SM [28]) was greater than 10 µg/mL, the MIC (E6SM [29]) was greater than 10 µg/mL and the MCC (HeLa) was 20 µg/mL. For the same compound, the MIC (HEL [13]) was greater than 100 µg/mL, the IC50 (MOLT-4) was greater than 100 µg/mL and the MIC (E6SM [30]) was greater than 10 µg/mL. The IC50 (HEL [3]) was greater than 20 µg/mL, the MCC (HEL [4]) was 20 µg/mL and the MIC (Vero [15]) was greater than 40 µg/mL. The MIC (Vero [16]) was greater than 40 µg/mL, the MIC (Vero [17]) was greater than 40 µg/mL and the IC50 (HEL [6]) was greater than 20 µg/mL. For the same compound, the EC50 (CCRF-CEM [31]) was greater than 40 µg/mL, the MIC (HEL [18]) was greater than 100 µg/mL and the MIC (Vero [19]) was greater than 40 µg/mL. The IC50 (HEL [20]) was greater than 20 µg/mL, the IC50 (FM3A) was greater than 100 µg/mL and the IC50 (CCRF-CEM [32]) was greater than 100 µg/mL. The MIC (E6SM [33]) was greater than 10 µg/mL, the IC50 (HEL [7]) was greater than 5 µg/mL and the MIC (Vero [21]) was greater than 40 µg/mL. It also gave an IC50 (L1210) greater than 100 µg/mL, an MCC (E6SM [23]) of 40 µg/mL and an MCC (Vero [24]) of 100 µg/mL. It also gave an MIC (E6SM [34]) greater than 10 µg/mL, an EC50 (CCRF-CEM [35]) greater than 40 µg/mL and an IC50 (HEL [8]) greater than 20 µg/mL.

`O=C(/C=C/c1cn([C@H]2C[C@H](O)[C@@H](CO)O2)c(=O)[nH]c1=O)c1ccccc1` showed a CC50 (HEL [1]) of 140 µg/mL (≈ 391 µM), an MIC (E6SM [26]) greater than 10 µg/mL and an MIC (HEL [27]) greater than 20 µg/mL. The MIC (E6SM [28]) was greater than 10 µg/mL, the MIC (E6SM [29]) was greater than 10 µg/mL and the MCC (HeLa) was 20 µg/mL. The MIC (HEL [13]) was 70 µg/mL (≈ 195 µM), the IC50 (MOLT-4) was 23 µg/mL (≈ 64.2 µM) and the MIC (E6SM [30]) was greater than 10 µg/mL. For the same compound, the MCC (HEL [4]) was 50 µg/mL, the MIC (Vero [15]) was greater than 200 µg/mL and the MIC (Vero [16]) was greater than 200 µg/mL. For the same compound, the MIC (Vero [17]) was greater than 200 µg/mL, the EC50 (CCRF-CEM [31]) was greater than 20 µg/mL and the MIC (HEL [18]) was greater than 100 µg/mL. The MIC (Vero [19]) was greater than 200 µg/mL, the IC50 (HEL [20]) was greater than 20 µg/mL and the IC50 (FM3A) was 32 µg/mL (≈ 89.3 µM). The IC50 (CCRF-CEM [32]) was 24 µg/mL (≈ 67 µM), the MIC (E6SM [33]) was greater than 10 µg/mL and the IC50 (HEL [36]) was greater than 20 µg/mL. For the same compound, the IC50 (HEL [7]) was greater than 20 µg/mL, the MIC (Vero [21]) was greater than 200 µg/mL and the IC50 (L1210) was 30 µg/mL (≈ 83.7 µM). For the same compound, the IC50 (HEL [37]) was greater than 20 µg/mL, the MCC (E6SM [23]) was 40 µg/mL and the MCC (Vero [24]) was 400 µg/mL. The MIC (E6SM [34]) was greater than 10 µg/mL, the EC50 (CCRF-CEM [35]) was greater than 20 µg/mL and the IC50 (HEL [8]) was greater than 20 µg/mL.
